According to patent US4737518A, “Lipid derivatives, their production and use” (Takeda Chemical Industries, Ltd., priority 1984, dated 1988):
Where a name gives a salt, the structure may show the parent alone.

What was measured:
[1] = test system: rabbit platelet aggregation by PAF; experiment: Inhibitory activity on rabbit platelet aggregation by PAF; format: cell-based; conditions: Oryctolagus cuniculus, PAF 1×10^-8 M, read-out: rate of inhibition of rabbit platelet aggregation by PAF; for inhibition at 30 µM: test drug 3 × 10^-5 M; for inhibition at 3 µM: test drug 3 × 10^-6 M; for inhibition at 0.3 µM: test drug 3 × 10^-7 M; for inhibition at 1 µM: test drug 1 × 10^-6 M
[2] = test system: HL-60 cells; experiment: Effect on inducing differentiation of HL-60 cells (NBT-positive cells); format: cell-based, human; conditions: 6 days; for Emax: Homo sapiens, HL-60, 144 h, at optimal conc., NBT-positive relative to live cells, read-out: Maximum differentiation extent: Differentiation
Method: Assay of the effects on inducing differentiation of HL-60 cells (human promyelocytic leukemia cells) and Neuro-2a cells (mouse neuroblastoma cells): RPMI-1640 medium (Flow Laboratories, Inc.) supplemented with 20% fetal calf serum (M.A. […] The culture was incubated at 37° C. in a 5% CO2 incubator for 6 days. […] The reaction was allowed to proceed at 37° C. for 20 minutes. The reaction was stopped by cooling with ice, and the cells were washed by means of centrifugation, followed by collecting 3-5×10^4 cells and by subjecting to centrifugation using Cytospin centrifuge to prepare a cell smear, which was fixed with methanol and stained with Kernechtrot solution. On each cell smear, the percentage of NBT-positive cells relative to live cells, […] by examination of a minimum of 200 cells, was expressed as the differentiation extent.

[3] = test system: PAF-induced death; experiment: Prevention activity against PAF-induced death in mice; format: in vivo, mouse (male Jc1-ICR); conditions: for (Mice survived)/(mice employed): PAF 50 μg/kg i.v., control 3/16
Method: Prevention activity against PAF-induced death in mice
The test drug was investigated for the preventive activity against shock death to be brought about within 30 min. after 50 μg/kg of PAF in the form of 0.1 ml/kg physiological saline solution was given intravenously to a male Jc1-ICR mouse. The test drug was administered intravenously 5 min. before the injection of PAF.
In accordance with the same procedure as described in Experiment Example 2, the test compounds were investigated for the preventive activity against PAF-induced death in mice.

[4] = test system: PAF-induced hypotension; experiment: Restoring activity against PAF-induced hypotension; format: in vivo, rat (male S.D.); conditions: 3 min after PAF 1 μg/kg i.v., 1 min after test drug
Method: Restoring activity against PAF-induced hypotension
Male S.D. rats, aged 16 weeks, were employed.
Under anesthesia with pentobarbital, cannulas were inserted into the femoral artery and vein of rats for measurement of blood pressure and for administration of a drug, respectively. Three (3) minutes after intravenous administration of 1 μg/kg (0.25% BAS physiological saline solution; volume of 0.2 ml/kg) of PAF, a test drug (physiological saline solution; volume of 0.5 ml/kg) was administered intravenously, and blood pressure was measured for subsequent 1 hour.
The ratio of hypertension by the test drug to hypotension by PAF was taken as a restoration rate.
Restoration rate (%)=[(Blood pressure just before i.v. administration of a test drug)-(Blood pressure 1 min. after i.v. administration of a test drug)/(Blood pressure just before i.v. administration of PAF)-(Blood pressure just before i.v. administration of a test drug)]×100

[5] = Table 4, 0.3 mg/kg i.v., control 24%
[6] = Table 4, 1.0 mg/kg i.v., control 24%

| SMILES | inhibition at 30 µM [1] [%] | inhibition at 3 µM [1] [%] | inhibition at 0.3 µM [1] [%] | Maximum differentiation extent: Optimal conc. [2] [µg/mL] | Emax [2] [%] | Survival rate [3, 6] [%] | Restoration rate ([4]; 0.5 mg/kg i.v.) [%] | also measured |
| --- | --- | --- | --- | --- | --- | --- | --- | --- |
| CCCCCCCCCCCCCCCCCCNC(=O)OCC(COC(=O)N(CC1CCC[N+]1(C)CC)C(C)=O)OC (centres unmarked) [Example 45, 3-O-[N-Acetyl-N-(1'-ethyl-1'-methylpyrrolidinio-2'-yl)methyl]carbamoyl-2-O-methyl-1-O-octadecylcarbamoylglycerol iodide] | 100 | 100 | 41 | 0.48 | 72 | 100 | – | Survival rate [3, 5]: 77% |
| CCCCCCCCCCCCCCCCCCOCC(CN1CC(=O)N(CC[n+]2ccsc2)C1=O)OC(C)=O (centres unmarked) [Example 92, 1-[1-(2-Acetoxy-3-octadecyloxy)propyl]-3-(2-thiazolioethyl)hydantoin chloride] | 100 | 100 | – | – | – | 100 | 77 | Survival rate [3, 5]: 77% |
| CCCCCCCCCCCCCCCCCCNC(=O)OCC(COC(=O)N(CC[N+]1(C)CCCC1)C(=O)OC)OC (centres unmarked) [Example 43, 3-O-[N-Methoxycarbonyl-N-(2'-N-methylpyrrolidinioethyl)]carbamoyl-2-O-methyl-1-O-octadecylcarbamoylglycerol iodide] | 100 | 100 | – | – | – | 100 | 83 | – |
| CCCCCCCCCCCCCCNC(=O)OCC(COC(=O)N(Cc1cccc[n+]1CC)C(C)=O)OC (centres unmarked) [Example 170, 3-[N-Acetyl-N-(N'-ethylpyridinio-2-yl)methyl]carbamoyl-2-methyl-1-tetradecylcarbamoylglycerol chloride] | 100 | 100 | 100 | 0.32 | 77 | – | – | – |
| CCCCCCCCCCCCCCCCCCNC(=O)OCC(CN1CC(=O)N(CC[N+](C)(C)C)C1=O)OC (centres unmarked) [Example 115, 1-[(2-Methoxy-3-octadecylcarbamoyloxy)propyl]-3-[2-(trimethylammonio)ethyl]hydantoin chloride] | 100 | 100 | 9 | 1.25 | 61 | – | – | – |
| CCCCCCCCCCCCCCCCCCOCC(CN1CC(=O)N(CC[N+](C)(C)C)C1=O)OC(C)=O (centres unmarked) [Example 91, 1-[1-(2-Acetoxy-3-ocatadecyloxy)propyl]-3-(2-trimethylammonioethyl)hydantoin chloride.] | 100 | 100 | 78 | – | – | 100 | 77 | – |
| CCCCCCCCCCCCCCCCCCNC(=O)OCC(COC(=O)N(Cc1cccc[n+]1C)C(C)=O)OC (centres unmarked) [Example 104, 3-O-[N-Acetyl-N-(N-methylpyridnio-2-yl)methyl]carbamoyl-2-O-methyl-1-O-octadecylcarbamoylglycerol chloride] | 100 | 100 | 100 | – | – | – | – | Restoration rate ([4]; 0.1 mg/kg i.v.): 94% |
| CCCCCCCCCCCCCCCCCCNC(=O)OCC(COC(=O)N(CC[N+]1(C)CCCC1)C(C)=O)OC (centres unmarked) [Example 35, 3-O-[N-Acetyl-N-(2'-N-methylpyrrolidinioethyl)]carbamoyl-2-O-methyl-1-O-octadecylcarbamoylglycerol hydrochloride] | 100 | 100 | 45 | – | – | 80 | 73 | – |
| CCCCCCCCCCCCCCCCCCOCC(COC(=O)N(CC[N+](C)(C)C)C(C)=O)OC(C)=O (centres unmarked) [Example 3, 2-O-Acetyl-3-O-[N-acetyl-N-(2'-trimethylammonioethyl)]carbamoyl-1-O-octadecylglycerol iodide] | 100 | 100 | – | – | – | – | 48 | inhibition at 1 µM [1]: 86%; Survival rate ([3]; 0.1 mg/kg i.v. 5 min before PAF 50 μg/kg i.v., control 19%): 38%; (Mice survived)/(mice employed) ([3]; 0.1 mg/kg i.v.): 3/8; Survival rate ([3]; 1.0 mg/kg i.v. 5 min before PAF 50 μg/kg i.v., control 19%): 100%; (Mice survived)/(mice employed) ([3]; 1.0 mg/kg i.v.): 8/8; prevention of PAF-induced death (conclusion) ([3]; 0.1 and 1 mg/kg i.v.): potent drug for prevention of PAF-induced death |
| CCCCCCCCCCCCCCCCNC(=O)OCC(COC(=O)N(Cc1cccc[n+]1CC)C(C)=O)OC (centres unmarked) [Example 169, 3-[N-Acetyl-N-(N'-ethylpyridinio-2-yl)methyl]carbamoyl-1-hexadecylcarbamoyl-2-methylglycerol chloride] | 100 | 100 | 100 | 0.32 | 59 | – | – | – |
| CCCCCCCCCCCCCCCCCCNC(=O)OCC(COC(=O)N(CC[N+](C)(C)C)C(C)=O)OC (centres unmarked) [Example 25, 3-O-[N-Acetyl-N-(2'-trimethylammonioethyl)]carbamoyl-2-O-methyl-1-O-octadecylcarbamoylglycerol iodide] | 100 | 100 | – | – | – | 94 | – | Restoration rate ([4]; 1.0 mg/kg i.v.): 69%; inhibition at 1 µM [1]: 40% |
